The source of these data is patent publication US10669268B2, “Bicyclic derivatives” (Hoffmann-La Roche Inc., priority 2012, dated 2020).

SMILES strings stand for the structures.

Usually IC50 stands for the concentration that gives 50% inhibition. The low end stands for higher potency, the high end for lower potency.

The experiment addresses ATX (human His-tagged) (Homo sapiens (Human), UniProt Q13822). Nature of the experiment: Human ATX enzyme inhibition assay (fluorescence quenching, MR121 substrate). Conditions: 30 nM ATX, 1 μM MR121 substrate, 30° C., pH 8.0. The class given is biochemical. In short, it runs like this:
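Tris-HCl buffer at pH 8.0 contained 140 mM NaCl, 5 mM KCl, 1 mM each CaCl2 and MgCl2, and 0.01% Triton X-100. The MR121 substrate (1 μM final) was incubated with enzyme for 15 min at 30 °C, and activity was read by fluorescence quenching.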
The compound `N#Cc1ccc(COC(=O)N2C[C@@H]3CN(C(=O)c4ccc5[nH]nnc5c4)C[C@H]3C2)c(OCC(F)(F)F)c1` [Example 4.66, (3aS,6aS)-5-(1H-benzotriazole-5-carbonyl)-hexahydro-pyrrolo[3,4-c]pyrrole-2-carboxylic acid 4-cyano-2-(2,2,2-trifluoro-ethoxy)-benzyl ester] displayed an IC50 of 40 nM.

For `CCOc1cc(Cl)c(F)cc1COC(=O)N1C[C@@H]2CN(C(=O)c3ccc4[nH]nnc4c3)C[C@H]2C1` [Example 4.67, (3aS,6aS)-5-(1H-benzotriazole-5-carbonyl)-hexahydro-pyrrolo[3,4-c]pyrrole-2-carboxylic acid 4-chloro-2-ethoxy-5-fluoro-benzyl ester], the IC50 was determined as 8 nM.

Consider `O=C(OCc1cc(Cl)cc(Cl)c1)N1C[C@H]2C[C@@H](Nc3ccc4[nH]c(=O)oc4c3)C[C@H]2C1` [Example 5, (3aR,5r,6aS)-3,5-Dichlorobenzyl 5-(2-oxo-2,3-dihydrobenzo[d]oxazol-6-ylamino)hexahydrocyclopenta[c]pyrrole-2(1H)-carboxylate], for which the concentration for half-maximal inhibition (IC50) stood at 248 nM.

For the compound `O=C(OCc1cc(Cl)cc(Cl)c1)N1C[C@H]2CN(Cc3ccc4[nH]cnc4c3)C[C@H]2C1` [Example 6, (3aR,6aS)-3,5-Dichlorobenzyl 5-((1H-benzo[d]imidazol-5-yl)methyl)hexahydropyrrolo[3,4-c]pyrrole-2(1H)-carboxylate], the midpoint of inhibition, the IC50, lay at 10400 nM.

For `O=C(OCc1cc(Cl)cc(Cl)c1)N1C[C@H]2CN(Cc3ccc4[nH]ncc4c3)C[C@H]2C1` [Example 6.02], the 50% inhibitory concentration (IC50) was found to be 2810 nM.

Take `O=C(OCc1cc(Cl)cc(Cl)c1)N1C[C@H]2CN(Cc3ccc4[nH]c(=O)oc4c3)C[C@H]2C1` [Example 6.03]: the half-maximal inhibitory concentration (IC50) is 531 nM.

`O=C(CCc1cc(Cl)cc(Cl)c1)N1C[C@H]2CN(Cc3ccc4[nH]c(=O)oc4c3)C[C@H]2C1` [Example 6.04]: the midpoint of inhibition, the IC50, lay at 282 nM.

Consider `N#Cc1ccc(/C=C/C(=O)N2CC[C@@H]3CN(Cc4ccc5[nH]nnc5c4)C[C@@H]3CC2)cc1` [Example 6.05], for which the IC50 was found to be 179 nM.

`O=C(OCc1cc(Cl)cc(Cl)c1)N1C[C@@H]2CN(S(=O)(=O)c3ccc4[nH]c(=O)oc4c3)C[C@@H]2C1` [Example 7, (3aR,6aS)-3,5-Dichlorobenzyl 5-(2-oxo-2,3-dihydrobenzo[d]oxazol-6-ylsulfonyl)hexahydropyrrolo[3,4-c]pyrrole-2(1H)-carboxylate] gave an IC50 of 22 nM.

Consider `O=C(OCc1cc(Cl)cc(Cl)c1)N1C[C@@H]2CN(C(=O)N3CCc4[nH]nnc4C3)C[C@@H]2C1` [Example 8, (3aR,6aS)-3,5-dichlorobenzyl 5-(4,5,6,7-tetrahydro-1H-[1,2,3]triazolo[4,5-c]pyridine-5-carbonyl)hexahydropyrrolo[3,4-c]pyrrole-2(1H)-carboxylate], for which the 50% inhibitory concentration (IC50) was 108 nM.

The compound `O=C(/C=C/c1ccc(OC(F)(F)F)cc1)N1CC[C@@H]2CN(C(=O)N3CCc4[nH]nnc4C3)C[C@@H]2CC1` [Example 8.01] gave a half-inhibitory concentration (IC50) of 2 nM.

For `O=C(/C=C/c1ccc(OC(F)(F)F)cc1)N1CC[C@@H]2CN(C(=O)N3CCc4[nH]ncc4C3)C[C@@H]2CC1` [Example 8.02], half-maximal inhibition (IC50) required 186 nM.

In turn, `O=C1N[C@@H]2CCN(C(=O)N3C[C@H]4CCN(C(=O)/C=C/c5ccc(OC(F)(F)F)cc5)CC[C@H]4C3)C[C@@H]2O1` [Example 8.03] registered an IC50 of 911 nM.

As to `O=C(/C=C/c1ccc(OC(F)(F)F)cc1)N1CC[C@@H]2CN(C(=O)N3CCc4[nH]c(=O)ccc4C3)C[C@@H]2CC1` [Example 8.04], the midpoint of inhibition, the IC50, lay at 192 nM.

In turn, `O=C1N[C@@H]2CCN(C(=O)N3C[C@H]4CCN(C(=O)/C=C/c5ccc(OC(F)(F)F)cc5)CC[C@H]4C3)C[C@H]2O1` [Example 8.05] registered an IC50 of 149 nM.

Take `O=C(/C=C/c1ccc(OC(F)(F)F)cc1)N1CC[C@@H]2CN(C(=O)N3CCc4ncccc4C3)C[C@@H]2CC1` [Example 8.06]: the IC50 worked out at 192 nM.

In turn, `O=C(/C=C/c1ccc(OC(F)(F)F)cc1)N1CC[C@@H]2CN(C(=O)N3CCn4nc(C(F)(F)F)nc4C3)C[C@@H]2CC1` [Example 8.07] came in with a concentration for half-maximal inhibition (IC50) of 1840 nM.

With `O=C(/C=C/c1ccc(OC(F)(F)F)cc1)N1CC[C@@H]2CN(C(=O)NCc3cnn[nH]3)C[C@@H]2CC1` [Example 9, (3aR,8aS)—N-((1H-1,2,3-Triazol-5-yl)methyl)-6-((E)-3-(4-(trifluoromethoxy)phenyl)-acryloyl)octahydropyrrolo[3,4-d]azepine-2(1H)-carboxamide], it took 709 nM to reach half-maximal inhibition (IC50).

Compound `O=C(/C=C/c1ccc(OC(F)(F)F)cc1)N1CC[C@@H]2CN(C(=O)NCc3cnn[nH]3)C[C@@H]2CC1` [Example 9.01] came in with a half-inhibitory concentration (IC50) of 38 nM.

In turn, `O=C(/C=C/c1ccc(OC(F)(F)F)cc1)N1C[C@@H]2CN(C(=O)NCc3c[nH]nn3)C[C@@H]2C1` [Example 9.02] returned an IC50 of 1600 nM.

As to `O=C(/C=C/c1ccc(OC(F)(F)F)c(F)c1)N1CC[C@@H]2CN(C(=O)NCc3cnn[nH]3)C[C@@H]2CC1` [Example 9.03], the IC50 was 42 nM.

For the compound `O=C(/C=C/c1ccc(OC(F)(F)F)cc1)N1CC[C@@H]2CN(C(=O)NCc3nnc[nH]3)C[C@@H]2CC1` [Example 9.04], inhibition was half-maximal at 713 nM (IC50).

The compound `O=C(/C=C/c1ccc(OC(F)(F)F)cc1)N1CC[C@@H]2CN(C(=O)N3CCc4[nH]cnc4C3)C[C@@H]2CC1` [Example 9.06] showed an IC50 of 247 nM.

Turning to `CN(Cc1cnn[nH]1)C(=O)N1C[C@H]2CCN(C(=O)/C=C/c3ccc(OC(F)(F)F)cc3)CC[C@H]2C1` [Example 9.07, (3aR,8aS)-N-((1H-1,2,3-triazol-5-yl)methyl)-N-methyl-6-((E)-3-(4-(trifluoromethoxy)phenyl)-acryloyl)octahydro-pyrrolo[3,4-d]azepine-2(1H)-carboxamide], the concentration for half-maximal inhibition (IC50) came out at 74 nM.

In turn, `CC(C)(Cc1cccc(Cl)c1)C(=O)N1CC[C@@H]2CN(C(=O)NCc3cnn[nH]3)C[C@@H]2CC1` [Example 9.08] showed a 50% inhibitory concentration (IC50) of 3400 nM.

With `O=C(/C=C/c1ccc(OC(F)(F)F)cc1)N1CC[C@@H]2CN(C(=O)NCCc3cnn[nH]3)C[C@@H]2CC1` [Example 9.09, (3aR,8aS)-N-(2-(1H-1,2,3-triazol-5-yl)ethyl)-6-((E)-3-(4-(trifluoromethoxy)-phenyl)acryloyl)octahydropyrrolo[3,4-d]azepine-2(1H)-carboxamide], the half-inhibitory concentration (IC50) was found to be 162 nM.

`NS(=O)(=O)C1CCN(C(=O)N2C[C@H]3CN(C(=O)OCc4ccc(OC(F)(F)F)cc4)C[C@@H]3C2)CC1` [Example 9.10] had a 50% inhibitory concentration (IC50) of 7 nM.

The compound `O=C(OCc1cc(Cl)cc(Cl)c1)N1CC[C@@H]2CN(C(=O)c3ccc4[nH]nnc4c3)C[C@@H]2C1` [Example 10A, (3aR,7aS)-2-(1H-Benzotriazole-5-carbonyl)-octahydro-pyrrolo[3,4-c]pyridine-5-carboxylic acid 3,5-dichloro-benzyl ester] registered an IC50 of 36 nM.

`O=C(OCc1cc(Cl)cc(Cl)c1)N1CC[C@H]2CN(C(=O)c3ccc4[nH]nnc4c3)C[C@H]2C1` [Example 10B, (3aS,7aR)-2-(1H-benzotriazole-5-carbonyl)-octahydro-pyrrolo[3,4-c]pyridine-5-carboxylic acid 3,5-dichloro-benzyl ester] gave an IC50 of 118 nM.

Turning to `O=C(/C=C/c1ccc(OC(F)(F)F)cc1)N1C[C@@H]2CN(C(=O)c3ccc4[nH]nnc4c3)C[C@@H]2C1` [Example 15, (E)-1-((3aR,6aS)-5-(1H-Benzo[d][1,2,3]triazole-5-carbonyl)hexahydropyrrolo[3,4-c]pyrrol-2(1H)-yl)-3-(4-(trifluoromethoxy)phenyl)prop-2-en-1-one], 26 nM corresponded to half-maximal inhibition (IC50).

As for `O=C(c1ccc2[nH]nnc2c1)N1C[C@@H]2CN(C(=O)c3cc4cc(Cl)ccc4[nH]3)C[C@@H]2C1` [Example 15.01], the IC50 was 1620 nM.

Compound `O=C(/C=C/c1cc(F)cc(C(F)(F)F)c1)N1C[C@@H]2CN(C(=O)c3ccc4[nH]nnc4c3)C[C@@H]2C1` [Example 15.02] showed a half-maximal inhibitory concentration (IC50) of 96 nM.

Compound `O=C(CCc1cc(F)cc(C(F)(F)F)c1)N1C[C@@H]2CN(C(=O)c3ccc4[nH]nnc4c3)C[C@@H]2C1` [Example 15.03] registered an IC50 of 362 nM.

`O=C(c1ccc2[nH]nnc2c1)N1C[C@@H]2CN(C(=O)c3cc4ccc(Cl)cc4[nH]3)C[C@@H]2C1` [Example 15.04] showed an IC50 of 2020 nM.

In turn, `O=C(/C=C/c1ccc(Cl)cc1)N1CC[C@@H]2CN(C(=O)c3ccc4[nH]nnc4c3)C[C@@H]2CC1` [Example 15.06] gave an IC50 of 12 nM.

As to `Cc1ccc(/C=C/C(=O)N2CC[C@@H]3CN(C(=O)c4ccc5[nH]nnc5c4)C[C@@H]3CC2)cc1` [Example 15.07], the IC50 was determined as 21 nM.

In the case of `CN(C)S(=O)(=O)c1ccc(/C=C/C(=O)N2CC[C@@H]3CN(C(=O)c4ccc5[nH]nnc5c4)C[C@@H]3CC2)cc1` [Example 15.08], the IC50 stood at 977 nM.

Consider `COc1ccc(/C=C/C(=O)N2CC[C@@H]3CN(C(=O)c4ccc5[nH]nnc5c4)C[C@@H]3CC2)cc1` [Example 15.09], for which the half-maximal inhibitory concentration (IC50) was found to be 42 nM.

Compound `O=C(/C=C/c1ccc(OC(F)(F)F)cc1)N1C[C@H]2CCN(C(=O)c3ccc4[nH]nnc4c3)CC[C@H]2C1` [Example 15.10] gave an IC50 of 34 nM.

In turn, `N#Cc1ccc(/C=C/C(=O)N2CC[C@@H]3CN(C(=O)c4ccc5[nH]nnc5c4)C[C@@H]3CC2)cc1` [Example 15.11] yielded a half-inhibitory concentration (IC50) of 13 nM.

`O=C(/C=C/c1ccc(OC(F)(F)F)cc1)N1C[C@@H]2CN(C(=O)c3ccc4[nH]nnc4c3)C[C@H]2C1` [Example 15.12] yielded an IC50 of 6 nM.

Regarding `O=C(CCc1ccc(OC(F)(F)F)cc1)N1C[C@@H]2CN(C(=O)c3ccc4[nH]nnc4c3)C[C@@H]2C1` [Example 15.13], the IC50 stood at 114 nM.
